Experimental data as given in paper PMC9036627, “Global update on the susceptibility of human influenza viruses to neuraminidase inhibitors, 2013–2014” (Antiviral research, 2015).

Columns and labels:
[1] = system: neuraminidase (NA) of B/Yamagata-lineage viruses; assay type: biochemical, influenza B/Yamagata-lineage virus; details: for IC50 fold-change compared to reference median IC50 values: B/Yamagata-lineage, no NA amino acid substitution (None), n=3, range
[2] = system: neuraminidase (NA) of B/Yamagata-lineage viruses; set-up: method as in Oakley et al., 2010; details: B/Yamagata-lineage virus, observed before, ref Oakley et al., 2010; cited from earlier work
[3] = system: neuraminidase (NA) of B/Victoria-lineage viruses; assay type: biochemical, influenza B/Victoria-lineage virus; details: B/Victoria-lineage, no NA amino acid substitution (None); n=3; range

Compound | IC50 fold-change compared to reference median IC50 values [1] | inhibition category conferred by NA D197N [2] | IC50 fold-change compared to reference median IC50 values [3] | Included in phenotypic analysis: inhibition category (HRI/RI/NI) [1]
CCC(CC)[C@H](NC(C)=O)[C@@H]1[C@H](O)[C@@H](C(=O)O)C[C@H]1N=C(N)N [Peramivir, peramivir] | 2.0–7.8 fold | RI (RI 5 to 50-fold) | 0.9–6.5 fold | –
CC(=O)N[C@H]1[C@H]([C@H](O)[C@H](O)CO)OC(C(=O)O)=C[C@@H]1N=C(N)N [Zanamivir, zanamivir] | 0.9–5.3 fold | RI (RI 5 to 50-fold) | 0.7–8.7 fold | Yes (RI to zanamivir, oseltamivir, peramivir and laninamivir) (key: NI < 5-fold; RI 5 to 50-fold; HRI > 50-fold)
CCOC(=O)C1=C[C@@H](OC(CC)CC)[C@H](NC(C)=O)[C@@H](N)C1 [Oseltamivir, oseltamivir] | 1.7–10 fold | – | 0.6–4.1 fold | –
[H]/N=C(\N)N[C@H]1C=C(C(=O)O)O[C@@H]([C@H](OC)[C@H](O)CO)[C@@H]1NC(C)=O [Laninamivir, laninamivir] | 0.6–5.1 fold | – | 0.7–4.7 fold | Yes (RI to zanamivir, oseltamivir, peramivir and laninamivir) (key: NI < 5-fold; RI 5 to 50-fold; HRI > 50-fold)
